In US20170305922A1, “CARM1 INHIBITORS AND USES THEREOF” (Epizyme, Inc., priority 2014, published 2017):
pIC50: −log10 of the molar value.

Legend:
[1] = target: T1, Human CARM1 (PRMT4) (Homo sapiens, UniProt Q86X55); assay: CARM1 enzyme assay on peptide substrates (3H-SAM Flashplate); conditions: Biochemical assay; CARM1 0.25 nM, 3H-SAM 30 nM, peptide 250 nM; read-out: Biochem IC50
T1 construct: Flag-CARM1-His was eluted with 200 ug/ml FLAG peptide in buffer A; made in house; host or cells: HEK 293F cells infected with recombinant baculovirus (pFastBacMam)
T1 sequence (Q86X55 1-585 isoform Q86X55-1): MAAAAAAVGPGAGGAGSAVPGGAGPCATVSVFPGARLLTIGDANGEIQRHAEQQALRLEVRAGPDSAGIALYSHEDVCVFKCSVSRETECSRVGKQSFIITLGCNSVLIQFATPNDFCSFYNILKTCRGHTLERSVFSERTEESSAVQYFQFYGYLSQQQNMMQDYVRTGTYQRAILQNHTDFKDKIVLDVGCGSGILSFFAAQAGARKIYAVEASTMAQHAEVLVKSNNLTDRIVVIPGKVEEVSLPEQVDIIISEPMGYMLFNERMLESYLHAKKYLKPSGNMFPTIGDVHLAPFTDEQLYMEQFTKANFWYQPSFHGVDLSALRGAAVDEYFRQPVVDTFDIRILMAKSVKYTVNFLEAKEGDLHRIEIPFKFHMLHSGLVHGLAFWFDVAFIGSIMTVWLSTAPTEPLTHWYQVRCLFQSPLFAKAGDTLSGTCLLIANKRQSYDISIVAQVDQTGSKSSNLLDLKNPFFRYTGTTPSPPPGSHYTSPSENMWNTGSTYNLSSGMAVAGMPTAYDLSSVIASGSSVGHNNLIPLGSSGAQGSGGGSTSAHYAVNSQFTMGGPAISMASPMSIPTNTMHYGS

[2] = tested on: asymmetric di-methyl PABP1 in RKO cells; assay: RKO methylation assay: In Cell Western (ICW) for asymmetric di-methyl PABP1 (PABP1me2a); conditions: Cellular-based (PABP1me2a) ICW (In Cell Western) assay
Summary of the method: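 In-cell western on compound-exposed RKO cells (48 hours): asymmetric di-methyl PABP1 detected by antibody at 800 nm, DNA content by DRAQ5 at 700 nm. Percent inhibition from signal ratios against DMSO (minimum) and 20 μM reference compound (maximum) wells; IC50 curves fitted from triplicates.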

| SMILES | pIC50 [1] | pIC50 ([2]; Homo sapiens, RKO, 48 h) | pIC50 ([2]; 48 hours) |
| --- | --- | --- | --- |
| CNC[C@@H](O)COc1ccc(Cl)c(-c2nc(-c3c(C)noc3C)c(C)c(N3CC(C)(C#N)C3)n2)c1 [Example 240] | 8.39 | 6.40 |  |
| CNC[C@@H](O)COc1ccc(Cl)c(-c2nc(-c3c(C)noc3C)c(C)c(N3CC4(CC(OCCOC)C4)C3)n2)c1 [Example 241] | 8.21 | 7.08 |  |
| CNC[C@@H](O)COc1ccc(Cl)c(-c2nc(-c3c(Br)cnn3C)c(C)c(N3Cc4ccc(N5CCC5)nc4C3)n2)c1 [Example 243] | 9.10 | 7.43 |  |
| CNC[C@@H](O)COc1ccc(Cl)c(-c2nc(-c3c(I)cnn3C)c(C)c(N3Cc4cccnc4C3)n2)c1 [Example 244] | 8.92 | 6.85 |  |
| CCOc1ccc2c(n1)CN(c1nc(-c3cc(OC[C@H](O)CNC)ccc3Cl)nc(-c3c(C)noc3C)c1C)C2 [Example 245] | 8.70 | 7.42 |  |
| CNC[C@@H](O)COc1ccc(Cl)c(-c2nc(-c3c(C)noc3C)c(C)c(N3CC4(CC(O)C4)C3)n2)c1 [Example 246] | 8.17 | 6.45 |  |
| CNC[C@@H](O)COc1ccc(Cl)c(-c2nc(-c3c(C)noc3C)c(C)c(N3CC4=C(CN(CC(F)(F)F)CC4)C3)n2)c1 [Example 247] | 8.40 | 7.21 |  |
| CNC[C@@H](O)COc1ccc(Cl)c(-c2nc(-c3c(C)noc3C)c(C)c(N3Cc4ccc(OCCOC)nc4C3)n2)c1 [Example 249] | 8.70 | 7.57 |  |
| CNC[C@@H](O)COc1ccc(Cl)c(-c2nc(-c3c(C)noc3C)c(C)c(N3CC4(CCC4(F)F)C3)n2)c1 [Example 250] | 8.40 | 6.66 |  |
| CNC[C@@H](O)COc1ccc(Cl)c(-c2nc(-c3c(C)noc3C)c(C)c(N3CC(C)(COC)C3)n2)c1 [Example 251] | 8.19 | 6.72 |  |
| CNC[C@@H](O)COc1ccc(Cl)c(-c2nc(-c3c(C)noc3C)c(C)c(N3CC(C)(CO)C3)n2)c1 [Example 252] | 8.10 | 6.25 |  |
| CNC[C@@H](O)COc1ccc(Cl)c(-c2nc(-c3c(C)noc3C)c(C)c(N3Cc4ccc(O[C@@H]5CCOC5)nc4C3)n2)c1 [Example 253] | 8.63 | 7.53 |  |
| CNC[C@@H](O)COc1ccc(Cl)c(-c2nc(-c3c(C)noc3C)c(C)c(N3Cc4ccc(O[C@H]5CCOC5)nc4C3)n2)c1 [Example 254] | 8.62 | 7.43 |  |
| CNC[C@@H](O)COc1ccc(Cl)c(-c2nc(-c3c(C)noc3C)c(C)c(N3CC4(CN(C(=O)OCCOC)C4)C3)n2)c1 [Example 255] | 8.14 | 6.42 |  |
| CNC[C@@H](O)COc1ccc(Cl)c(-c2nc(-c3c(C)c(Br)nn3C)c(C)c(N3CC4(CC(OC)C4)C3)n2)c1 [Example 256] | 8.40 | 7.36 |  |
| CNC[C@@H](O)COc1ccc(Cl)c(-c2nc(-c3c(C)noc3C)c(C)c(N3CC4=C(CN(C(=O)OC)CC4)C3)n2)c1 [Example 257] | 8.62 | 7.64 |  |
| CNC[C@@H](O)COc1ccc(Cl)c(-c2nc(-c3c(C)noc3C)c(C)c(N3Cc4ccc(N(C)C)nc4C3)n2)c1 [Example 258] | 8.74 | 7.53 |  |
| CNC[C@@H](O)COc1ccc(Cl)c(-c2nc(-c3c(C)noc3C)c(C)c(N3Cc4ccc(N5CC(F)C5)nc4C3)n2)c1 [Example 259] | 8.66 | 7.64 |  |
| CNC[C@@H](O)COc1ccc(Cl)c(-c2nc(-c3c(C)noc3C)c(C)c(N3CC4(CC(OC(C)C)C4)C3)n2)c1 [Example 260] | 8.23 |  | 7.34 |
| CNC[C@@H](O)COc1ccc(Cl)c(-c2nc(-c3c(C)noc3C)c(C)c(N3Cc4cccnc4C3)n2)c1 [Example 262] | 8.63 | 7.49 |  |
| CNC[C@@H](O)COc1ccc(Cl)c(-c2nc(-c3c(C)noc3C)c(C)c(N3CC4(CCC(OC)C4)C3)n2)c1 (stereo partly shown) [Example 263] | 8.27 | 7.04 |  |
| CNC[C@@H](O)COc1ccc(Cl)c(-c2nc(-c3c(C)noc3C)c(C)c(N3CC4(CN(CCC(F)(F)F)C4)C3)n2)c1 [Example 264] | 8.39 | 7.29 |  |
| CNC[C@@H](O)COc1ccc(Cl)c(-c2nc(-c3c(C)c(Cl)nn3C)c(C)c(N3CC4(CN(C(=O)OC)C4)C3)n2)c1 [Example 265] | 8.38 | 7.06 |  |
| CNC[C@@H](O)COc1ccc(Cl)c(-c2nc(-c3c(Br)cnn3C)c(C)c(N3CC4(CN(C(=O)OC)C4)C3)n2)c1 [Example 266] | 8.17 | 6.51 |  |

| SMILES | pIC50 [1] | pIC50 ([2]; Homo sapiens, RKO, 48 h) | pIC50 ([2]; 48 hours) |
| --- | --- | --- | --- |
| CNC[C@@H](O)COc1ccc(Cl)c(-c2nc(-c3c(Br)cnn3C)c(C)c(N3CC4(CN(CC(F)(F)F)C4)C3)n2)c1 [Example 267] | 8.05 | 6.92 |  |
| CNC[C@@H](O)COc1ccc(Cl)c(-c2nc(-c3c(C)noc3C)c(C)c(N3CC4(CC(N5CCC5)C4)C3)n2)c1 [Example 268] | 8.90 | 5.87 |  |
| CNC[C@@H](O)COc1ccc(Cl)c(-c2nc(-c3c(C)noc3C)c(C)c(N3CC4(CC(N5CC(OC)C5)C4)C3)n2)c1 [Example 269] | 9.10 | 6.45 |  |
| CNC[C@@H](O)COc1ccc(Cl)c(-c2nc(-c3c(C)noc3C)c(C)c(N3CC4(CC(N5CCOCC5)C4)C3)n2)c1 [Example 270] | 8.31 | 6.57 |  |
| CNC[C@@H](O)COc1ccc(Cl)c(-c2nc(-c3c(C)noc3C)c(C)c(N3CC4(CC(N(C)CC(F)(F)F)C4)C3)n2)c1 [Example 271] | 8.13 | 7.05 |  |
| CNC[C@@H](O)COc1ccc(Cl)c(-c2nc(-c3c(C)noc3C)c(C)c(N3CC4(C3)CC(OC)(OC)C4)n2)c1 [Example 272] | 8.27 | 7.10 |  |
| CNC[C@@H](O)COc1ccc(Cl)c(-c2nc(-c3c(C)noc3C)c(C)c(N3Cc4ccc(OCC(F)F)nc4C3)n2)c1 [Example 273] | 8.65 | 7.21 |  |
| CNC[C@@H](O)COc1ccc(Cl)c(-c2nc(-c3c(C)c(Cl)nn3C)c(C)c(N3CC4(CC(OC(C)C)C4)C3)n2)c1 [Example 274] | 8.30 | 7.31 |  |
| CNC[C@@H](O)COc1ccc(Cl)c(-c2nc(-c3c(C)c(Br)nn3C)c(C)c(N3CC4(CC(OC(C)C)C4)C3)n2)c1 [Example 275] | 8.45 | 7.35 |  |
| CNC[C@@H](O)COc1ccc(Cl)c(-c2nc(-c3c(C)noc3C)c(C)c(N3CC4(C3)CC3(C4)OCCO3)n2)c1 [Example 276] | 8.31 | 7.12 |  |
| CNC[C@@H](O)COc1ccc(Cl)c(-c2nc(-c3c(C)noc3C)c(C)c(N3CC4(CN(CCC#N)C4)C3)n2)c1 [Example 277] | 8.08 | 5.83 |  |
| CNC[C@@H](O)COc1ccc(Cl)c(-c2nc(-c3c(C)noc3C)c(C)c(N3CC4(CCC4F)C3)n2)c1 (stereo partly shown) [Example 278] | 8.39 | 6.26 |  |
| CNC[C@@H](O)COc1ccc(Cl)c(-c2nc(-c3c(C)noc3C)c(C)c(N3CC4(CC(N5CC(F)(F)C5)C4)C3)n2)c1 [Example 279] | 8.24 | 7.27 |  |
| CNC[C@@H](O)COc1ccc(Cl)c(-c2nc(-c3c(C)noc3C)c(C)c(N3CC4(CC(N5CC(F)C5)C4)C3)n2)c1 [Example 280] | 8.68 | 6.98 |  |
| CNC[C@@H](O)COc1ccc(Cl)c(-c2nc(-c3c(C)noc3C)c(C)c(N3CC4(CC(N(C)C5CC5)C4)C3)n2)c1 [Example 281] | 8.98 | 7.10 |  |
| CNC[C@@H](O)COc1ccc(Cl)c(-c2nc(-c3c(C)noc3C)c(C)c(N3CC4(CC(NC)C4)C3)n2)c1 [Example 282] | 9.05 | 5.65 |  |
| CNC[C@@H](O)COc1ccc(Cl)c(-c2nc(-c3c(C)noc3C)c(C)c(N3CC4(C3)CN(C(C)C(F)(F)F)C4)n2)c1 (stereo partly shown) [Example 283] | 8.25 | 7.32 |  |
| CNC[C@@H](O)COc1ccc(Cl)c(-c2nc(-c3c(C)c(Br)nn3C)c(C)c(N3CC4(CN(CC(F)F)C4)C3)n2)c1 [Example 284] | 8.63 | 7.41 |  |
| CNC[C@@H](O)COc1ccc(Cl)c(-c2nc(-c3c(C)c(Cl)nn3C)c(C)c(N3CC4(CN(CC(F)F)C4)C3)n2)c1 [Example 285] | 8.62 | 7.34 |  |
| CNC[C@@H](O)COc1ccc(Cl)c(-c2nc(-c3c(C)noc3C)c(C)c(N3CC(C#N)(COC)C3)n2)c1 [Example 286] | 8.38 | 6.55 |  |
| CNC[C@@H](O)COc1ccc(Cl)c(-c2nc(-c3c(C)noc3C)c(C)c(N3CC4(CC(OCCC#N)C4)C3)n2)c1 [Example 287] | 8.35 | 7.16 |  |
| CNC[C@@H](O)COc1ccc(Cl)c(-c2nc(-c3c(C)noc3C)c(C)c(N3CC4(CCC4OC)C3)n2)c1 (stereo partly shown) [Example 288] | 8.41 | 6.63 |  |
| CNC[C@@H](O)COc1ccc(Cl)c(-c2nc(-c3c(C)noc3C)c(C)c(N3CC4(CC(N(C)CC(F)F)C4)C3)n2)c1 [Example 289] | 8.39 | 7.12 |  |
